Columns and labels:
Format in all cases: cell-based
glucocorticoid receptor [1] = assay: cDNA microarray, TGFβ1-induced down-regulation of glucocorticoid receptor in normal rat kidney cells (NRK); conditions: 5 ng/ml huTGF-b1, 24 hours
Description: Normal rat kidney cells (NRK) were cultured in DMEM-21 (high glucose)/10% FCS at 37° C., 5% CO2. Cells were serum starved for 24 hr before treated with 5 ng/ml huTGF-b1 (R&D System) or co-treatment with 1 μM Compound No. 81 or 0.1 μM Compound No. 74 for 24 hours.
Gene expression profiles were determined from cDNA microarrays containing approximately 9000 elements derived from clones isolated from normalized cDNA libraries or purchased from ResGen (Invitrogen Life Technologies, Carlsbad, Calif.). DNA for spotting was generated by PCR amplification using 5′amino-modified primers (BD Biosciences Clontech, Palo Alto, Calif.) derived from flanking vector sequences. […]
(§1) Total RNA was extracted from cells using Qiagen's RNeasy kit. […] Hybridization of each fluorophore was quantified using an Axon GenePix 4000A scanner.
(§2) Differential expression values were expressed as the ratio of the median of background-subtracted fluorescent intensity of the experimental RNA to the median of background-subtracted fluorescent intensity of the control RNA. For ratios greater than or equal to 1.0, the ratio was expressed as a positive value. For ratios less than 1.0, the ratio was expressed as the negative reciprocal (i.e., a ratio of 0.5=−2.0). […] Differential expression ratios were determined as the mean of the two values from dye-swapped duplicates. […]

glucocorticoid receptor [2] = assay: cDNA microarray, TGFβ1-induced down-regulation of glucocorticoid receptor in rat lung fibroblasts (RLF); conditions: 15 ng/ml TGFβ1, 24 hours
Description: Rat lung fibroblasts (RLF) were isolated from perfused rat lung by physical and enzymatic dissociation of lung tissue. […] RLFs were cultured in FGM-2 with 2% FBS (Clonetics # CC-3132). Cells were serum starved for 24 hours, followed by the treatment with 15 ng/ml TGFβ1 (R&D System) or co-treatment with 1 μM Compound No. 81 or 0.1 μM Compound No. 74 for 24 hours.
(§3) Gene expression profiles were determined from cDNA microarrays containing approximately 9000 elements derived from clones isolated from normalized cDNA libraries or purchased from ResGen (Invitrogen Life Technologies, Carlsbad, Calif.). […]
as §1, §2

[3] = tested on: steroid/thyroid receptors; assay: cDNA microarray, TGFβ1-induced down-regulation of steroid/thyroid receptors in human lung fibroblasts; conditions: 5 ng/ml TGFβ1
Description: Human lung fibroblasts (Cambrex Bio Science) from a person were seeded at 4×10^5 cells (passage 4) in 100 mm dishes and cultured in complete FGM medium (Cambrex Bio Science). The next day, medium was changed to FGM without serum or fibroblast growth factor, but supplemented with 0.2% bovine serum albumin and 50 μg/m; Vitamin C. Cells were serum deprived for 24 hours prior to treating with 5 ng/ml TGFβ1 (R&D Systems) in the presence or absence of 400 nM Compound No. 79. Induction with TGFβ was carried out for various times (7.5 hours, 24 hours, and 3 days) after which RNA was harvested by lysing the cells in RLT buffer (Qiagen) and frozen at −80° C.
as §3, §1
Differential expression values were expressed as the ratio of the median of background-subtracted fluorescent intensity of the experimental RNA to the median of background-subtracted fluorescent intensity of the control RNA. For ratios greater than or equal to 1.0, the ratio was expressed as a positive value. […]

Question: Which “down-regulation of glucocorticoid receptor expression at the transcriptional level” value (glucocorticoid receptor [1]) does the source give for “TGF-β1: huTGF-b1 (R&D System), transforming growth factor-beta 1, used to induce receptor down-regulation” here?
Answer: 2 fold

Question: And the “down-regulation of glucocorticoid receptor expression at the transcriptional level” value (glucocorticoid receptor [2])?
Answer: 2 fold

Question: What about the “expression of seven members of the steroid nuclear receptor family, including glucocorticoid receptor and retinoid receptor C alpha” value [3] of the same substance?
Answer: down-regulates

From patent publication US20040138188A1, “Use of TGF-beta inhibitors to counteract pathologic changes in the level or function of steroid/thyroid receptors” (priority 2002, published 2004)
